According to patent publication US6280712A, “Sun screen agents” (Cognis Deutschland GmbH, priority 1997, dated 2001):

Experiments:
Assay type in all cases: physicochemical
[1] = Dissolving power for UV filters (statement in words); details: for dissolving properties for UV filters: general statement; for dissolving power for UV filters: in contrast to other high-spreading oils, for example dialkyl ethers or cyclomethicone
[2] = High-spreading property (statement in words); details: general statement
[3] = Zeidler spreading value
Source text: in which R^1 and R^2 independently of one another represent linear or branched alkyl and/or alkenyl groups containing 1 to 22 carbon atoms, with the proviso that they contain in all at least 12, preferably 12 to 50 and more preferably 15 to 25 carbon atoms. The compounds are obtained by transesterifying dimethyl or diethyl carbonate, for example, with the corresponding fatty alcohols in known manner. Accordingly, the fatty carbonates may be symmetrical or non-symmetrical. However, carbonates in which R^1 and R^2 are the same and represent C6-16 alkyl groups are preferably used. Transesterification products of dimethyl or diethyl carbonate with octanol, 2-ethylhexyl alcohol, decanol, cetyl alcohol, cetearyl alcohol, stearyl alcohol, isostearyl alcohol, oleyl alcohol, behenyl alcohol and/or erucyl alcohol in the form of their mono- and diesters or technical mixtures and Guerbet alcohols containing 8 to 24 carbon atoms are particularly preferred. […] The dialkyl carbonates may be used in quantities of 1 to 30% by weight, preferably 5 to 20% by weight and more preferably 8 to 10% by weight, based on the composition.

[4] = Volatility of the oil (remark in Table 1); details: remark at Zeidler spreading value

Zeidler spreading value [3]	volatility [4]	Compound	dissolving properties for UV filters [1]	dissolving power for UV filters [1]	spreading [2]
1600 mm^2/10 mins		CCCCCCCCOC(=O)OCCCCCCCC [di-n-octyl carbonate]	excellent dissolving properties for UV filters	distinctly higher dissolving power for UV filters	high-spreading
> 1600 mm^2/10 mins	volatile	Cyclomethicone [reference compound]			

Compound	Zeidler spreading value [3]	volatility [4]	dissolving properties for UV filters [1]	dissolving power for UV filters [1]	spreading [2]
CCCCC(CC)COC(=O)OCC(CC)CCCC (stereo not shown) [di-2-ethylhexyl carbonate]	1600 mm^2/10 mins		excellent dissolving properties for UV filters	distinctly higher dissolving power for UV filters	high-spreading
